Reference: BindingDB's records for doi:10.1016/S0960-894X(96)00274-0 (1996)

Columns and labels:
[1] = Compound was tested for Inhibition of [3H]-DPDPE (0.2 nM) binding to Opioid receptor from bovine striatal Membranes
[2] = Compound was tested for Inhibition of 9 (1 nM) binding to Opioid receptor delta 1 from bovine striatal Membranes

| SMILES | IC50 [1] [µM] | IC50 [2] [µM] |
| --- | --- | --- |
| C=C(Cl)C(=O)N[C@@]12CCC(=O)[C@@H]3Oc4c(O)ccc5c4C31CCN(CC1CC1)C2C5 (stereo partly drawn) [1N-[4-cyclopropylmethyl-10-hydroxy-14-oxo-(13R,17S)-12-oxa-4-azapentacyclo[9.6.1.01,13.05,17.07,18]octadeca-7(18),8,10-trien-17-yl]-2-chloroacrylamide] | 0.501 | 0.177 |
| C=C(Cl)C(=O)N[C@@H]1CCC2C3Cc4ccc(O)c5c4C2(CCN3CC2CC2)[C@H]1O5 (stereo partly drawn) [1N-[4-cyclopropylmethyl-10-hydroxy-(13R,14R)-12-oxa-4-azapentacyclo[9.6.1.01,13.05,17.07,18]octadeca-7(18),8,10-trien-14-yl]-2-chloroacrylamide] | 0.0015 | 0.00053 |
| C=C(Cl)C(=O)N[C@@]12CCC(=O)[C@@H]3Oc4c(O)ccc5c4C31CCN(C)C2C5 (stereo partly drawn) [1N-[10-hydroxy-4-methyl-14-oxo-(13R,17S)-12-oxa-4-azapentacyclo[9.6.1.01,13.05,17.07,18]octadeca-7(18),8,10-trien-17-yl]-2-chloroacrylamide] | 0.184 | 0.178 |
| C=C(Cl)C(=O)N[C@@H]1CCC2C3Cc4ccc(O)c5c4C2(CCN3C)[C@H]1O5 (stereo partly drawn) [1N-[10-hydroxy-4-methyl-(13R,14R)-12-oxa-4-azapentacyclo[9.6.1.01,13.05,17.07,18]octadeca-7(18),8,10-trien-14-yl]-2-chloroacrylamide] | 0.026 | 0.045 |
